The values that follow are results of earlier work, collected in patent US20170058346A1, “Methods Employing Non-Coding RNA Expression Assays” (SISTEMIC SCOTLAND LIMITED, priority 2009, published 2017).

The subject of this series is HDAC. To be noted: from a literature review.

With `C[S+](C)[O-]` [DMSO, dimethyl sulphoxide], the HDAC inhibitor activity result was “shown to be an HDAC inhibitor”.
